Data from patent US20110190235A1, “BORON-CONTAINING SMALL MOLECULES AS ANTIPROTOZOAL AGENTS” (Anacor Pharmaceuticals, Inc., priority 2009, published 2011).
Converted amounts (≈) assume the structure as drawn. Read-outs that look alike come from different tables or passages of the source.

Tests used:
[1] = Kinetic solubility by nephelometric (light scattering) method; assay type: physicochemical; conditions: phosphate buffered saline, aqueous buffer, kinetic from dmso stock, PBS pH 7.4
Protocol: The kinetic solubilities of compounds were estimated using a nephelometric (light scattering) method. Briefly, compounds were serially diluted in DMSO, followed by dilution in PBS pH 7.4. After incubation, the amount of light scattered by a compound at each concentration was measured. […] At concentrations above the solubility limit, the compound precipitates and the precipitant in the well scatters the light, generating a signal. Higher levels of precipitant in a well scatter more light and produce a stronger signal.
A stock solution of compound (25 mM in DMSO) was prepared, and was serially diluted in DMSO in two-fold increments in a row of a 96 well plate to a lowest concentration of 24 μM. A duplicate plate was prepared by transfer of half of the volume of each well to a new plate. Each well containing DMSO solution of the test compound was then diluted further (1:100) with phosphate buffered saline (pH 7.4) to provide aqueous solutions of compound at the following final concentrations: 250, 125, 62.5, 31.3, 15.6, 7.8, 3.9, 2.0, 1.0, 0.5 and 0.2 μM. All liquid handling stages were performed on a Beckman Coulter Biomek NX Laboratory Automation Workstation. Each compound was diluted and tested in duplicate, providing four separate wells at each test concentration.
The test solutions of compound were incubated at room temperature for 90 minutes and then analyzed using a Thermoskan Ascent nephelometric plate reader. The nephelometer protocol included two steps: first, the plate was shaken for 60 seconds at 1200 rpm, then each well of the plate was read in succession with an 800 ms settling delay between measurements. The total measurement time for a single plate was less than 4 minutes.
The four values (in nephelometric units) obtained for each compound at each concentration were averaged and plotted on a log scale versus concentration.

[2] = L929 cytotoxicity evaluation (resazurin); assay type: cell-based; conditions: mouse, L929 mouse fibroblast cells; 72 hrs incubation; read-out: Cytotox L-929 IC50
Method in brief: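 Mouse L929 fibroblasts (1×10^4/mL seeding, attached overnight) were treated 72 h at 37 °C, 5% CO2 with serially diluted compounds in DMSO in D-MEM/10% FBS. Viability read by resazurin fluorescence after 3–4 h (ex 544/em 590 nm); IC50 from sigmoidal fits of single data points.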

[3] = system: bloodstream-form trypanosome T. brucei brucei 427 strain; assay: Trypanosoma brucei brucei high-throughput in vitro drug sensitivity assay (resazurin); assay type: cell-based; conditions: for Selectivity Index (L929 IC50 / T. b. brucei IC50): T. b. brucei vs L929; for IC50: Trypanosoma brucei
[4] = 72 hrs incubation, read-out: T. b. brucei IC50
[5] = 72 hrs incubation, read-out: T.b. brucei IC50
[6] = 72 h, read-out: T.b. brucei IC50 (ug/mL)

SMILES	solubility at 90 min [1]	IC50 at 72 h [2]	Selectivity Index (L929 IC50 / T. b. brucei IC50) [3]	IC50 [3, 4]	IC50 [3, 5]	IC50 [3, 6]	IC50 ([3]; 72 h, read-out: T. b. brucei IC50 (nM))
O=C(Nc1ccc2c(c1)B(O)OC2C1CCCC1)c1ccccc1C(F)(F)F (stereo not drawn) [compound 17, N-(3-Cyclopentyl-1-hydroxy-1,3-dihydro-benzo[c][1,2]oxaborol-6-yl)-2-trifluoromethyl-benzamide]	25 µM (≈ 9.73 µg/mL)	> 10 µg/mL	>15	1680 nM	0.655 µg/mL		
O=C(Nc1ccc2c(c1)B(O)OC2C1CCCC1)c1ccc(F)cc1C(F)(F)F (stereo not drawn) [compound 19, N-(3-Cyclopentyl-1-hydroxy-1,3-dihydro-benzo[c][1,2]oxaborol-6-yl)-4-fluoro-2-trifluoromethyl-benzamide]	100 µM (≈ 40.7 µg/mL)	> 10 µg/mL	>3	7810 nM	3.18 µg/mL		
CC(C)CC1OB(O)c2cc(NC(=O)c3ccc(F)cc3C(F)(F)F)ccc21 (stereo not drawn) [compound 23, 4-Fluoro-N-(1-hydroxy-3-isobutyl-1,3-dihydro-benzo[c][1,2]oxaborol-6-yl)-2-trifluoromethyl-benzamide]	25 µM (≈ 9.88 µg/mL)	> 10 µg/mL	>4	6100 nM	2.41 µg/mL		
CC1(C)OB(O)c2cc(NC(=O)c3ccccc3)ccc21 [compound 26, N-(1-Hydroxy-3,3-dimethyl-1,3-dihydro-benzo[c][1,2]oxaborol-6-yl)-benzamide]	200 µM (≈ 56.2 µg/mL)	> 10 µg/mL			> 5 µg/mL		
CC(C)(C)c1ccc(C(=O)Nc2ccc3c(c2)B(O)OC3(C)C)cc1 [compound 33, 4-tert-Butyl-N-(1-hydroxy-3,3-dimethyl-1,3-dihydro-benzo[c][1,2]oxaborol-6-yl)-benzamide]	6 µM (≈ 2.02 µg/mL)	> 10 µg/mL			0.229 µg/mL		
CC1(C)OB(O)c2cc(NC(=O)c3ccccc3C(F)(F)F)ccc21 [compound 34, N-(1-Hydroxy-3,3-dimethyl-1,3-dihydro-benzo[c][1,2]oxaborol-6-yl)-2-trifluoromethyl-benzamide]	50 µM (≈ 17.5 µg/mL)	> 10 µg/mL	>94	304 nM	0.106 µg/mL		
CC1(C)OB(O)c2cc(NC(=O)c3ccccc3Cl)ccc21 [compound 38, 2-Chloro-N-(1-hydroxy-3,3-dimethyl-1,3-dihydro-benzo[c][1,2]oxaborol-6-yl)-benzamide]	13 µM (≈ 4.1 µg/mL)	> 10 µg/mL	>60	532 nM	0.168 µg/mL		
CC1(C)OB(O)c2cc(NC(=O)c3ccccc3Br)ccc21 [compound 39, 2-Bromo-N-(1-hydroxy-3,3-dimethyl-1,3-dihydro-benzo[c][1,2]oxaborol-6-yl)-benzamide]	50 µM (≈ 18 µg/mL)	> 10 µg/mL	>44	631 nM	0.227 µg/mL		
CC1(C)OB(O)c2cc(NC(=O)c3ccc(F)cc3)ccc21 [compound 44, 4-Fluoro-N-(1-hydroxy-3,3-dimethyl-1,3-dihydro-benzo[c][1,2]oxaborol-6-yl)-benzamide]	100 µM (≈ 29.9 µg/mL)	> 10 µg/mL		> 16700 nM	> 5 µg/mL		
CC1(C)OB(O)c2cc(NC(=O)c3ccc(Cl)cc3Cl)ccc21 [compound 65, 2,4-Dichloro-N-(1-hydroxy-3,3-dimethyl-1,3-dihydro-benzo[c][1,2]oxaborol-6-yl)-benzamide]	50 µM (≈ 17.5 µg/mL)	> 10 µg/mL			0.278 µg/mL		
CC1(C)OB(O)c2cc(NC(=O)c3ccc(Br)cc3Cl)ccc21 [compound 76, 4-Bromo-2-chloro-N-(1-hydroxy-3,3-dimethyl-1,3-dihydro-benzo[c][1,2]oxaborol-6-yl)-benzamide]	25 µM (≈ 9.86 µg/mL)	> 10 µg/mL			0.185 µg/mL		
CC(C)c1ccc(C(=O)Nc2ccc3c(c2)B(O)OC3(C)C)c(Cl)c1 [compound 101, 2-Chloro-N-(1-hydroxy-3,3-dimethyl-1,3-dihydro-benzo[c][1,2]oxaborol-6-yl)-4-isopropyl-benzamide]	25 µM (≈ 8.94 µg/mL)	8.43 µg/mL (≈ 23.6 µM)				0.05 µg/mL	
Cc1ccc(F)c(C(=O)Nc2ccc3c(c2)B(O)OC3(C)C)c1Cl [compound 107, 2-Chloro-6-fluoro-N-(1-hydroxy-3,3-dimethyl-1,3-dihydro-benzo[c][1,2]oxaborol-6-yl)-3-methyl-benzamide]	4.3 µM (≈ 1.49 µg/mL)	> 10 µg/mL			0.566 µg/mL		
CC1(C)OB(O)c2cc(NC(=O)c3ccc4ccccc4c3)ccc21 [compound 112, Naphthalene-2-carboxylic acid (1-hydroxy-3,3-dimethyl-1,3-dihydrobenzo[c][1,2]oxaborol-6-yl)-amide]	50 µM (≈ 16.6 µg/mL)	> 10 µg/mL			0.278 µg/mL		
CC1(C)OB(O)c2cc(NC(=O)c3ccccn3)ccc21 [compound 114, Pyridine-2-carboxylic acid (1-hydroxy-3,3-dimethyl-1,3-dihydro-benzo[c][1,2]oxaborol-6-yl)-amide]	100 µM (≈ 28.2 µg/mL)	> 10 µg/mL			> 5 µg/mL		
O=C(Nc1ccc2c(c1)B(O)OC21CCC1)c1ccc(F)cc1C(F)(F)F [compound 134]	100 µM (≈ 37.9 µg/mL)	> 10 µg/mL	>30			0.338 µg/mL	892 nM
O=C(Nc1ccc2c(c1)B(O)OC21CCC1)c1ccc(F)cc1Cl [compound 135]	25 µM (≈ 8.64 µg/mL)	> 10 µg/mL	>58	498 nM	0.172 µg/mL		
O=C(Nc1ccc2c(c1)B(O)OC21CCCC1)c1ccc(F)cc1C(F)(F)F [compound 136]	25 µM (≈ 9.83 µg/mL)	> 10 µg/mL		> 12700 nM	> 5 µg/mL		
